Measured values taken from publication PMC3879121 (Journal of natural products, 2013).

Columns and labels:
[1] = test system: human dermal fibroblast (hDF) cells; test: Cell cytotoxicity MTS-PMS assay, hDF; type: cell-based; details: 72 h, read-out: hDF GI50
HDAC2 = HDAC2 (Homo sapiens, UniProt Q92769); test: HDAC enzyme assay; details: for inhibition of HDAC2: at 1 µM, initial results (data not shown)
HDAC4 = HDAC4 (Homo sapiens, UniProt P56524); test: HDAC enzyme assay; details: at 1 µM, initial results (data not shown)
HDAC4, sequence (P56524 whole entry): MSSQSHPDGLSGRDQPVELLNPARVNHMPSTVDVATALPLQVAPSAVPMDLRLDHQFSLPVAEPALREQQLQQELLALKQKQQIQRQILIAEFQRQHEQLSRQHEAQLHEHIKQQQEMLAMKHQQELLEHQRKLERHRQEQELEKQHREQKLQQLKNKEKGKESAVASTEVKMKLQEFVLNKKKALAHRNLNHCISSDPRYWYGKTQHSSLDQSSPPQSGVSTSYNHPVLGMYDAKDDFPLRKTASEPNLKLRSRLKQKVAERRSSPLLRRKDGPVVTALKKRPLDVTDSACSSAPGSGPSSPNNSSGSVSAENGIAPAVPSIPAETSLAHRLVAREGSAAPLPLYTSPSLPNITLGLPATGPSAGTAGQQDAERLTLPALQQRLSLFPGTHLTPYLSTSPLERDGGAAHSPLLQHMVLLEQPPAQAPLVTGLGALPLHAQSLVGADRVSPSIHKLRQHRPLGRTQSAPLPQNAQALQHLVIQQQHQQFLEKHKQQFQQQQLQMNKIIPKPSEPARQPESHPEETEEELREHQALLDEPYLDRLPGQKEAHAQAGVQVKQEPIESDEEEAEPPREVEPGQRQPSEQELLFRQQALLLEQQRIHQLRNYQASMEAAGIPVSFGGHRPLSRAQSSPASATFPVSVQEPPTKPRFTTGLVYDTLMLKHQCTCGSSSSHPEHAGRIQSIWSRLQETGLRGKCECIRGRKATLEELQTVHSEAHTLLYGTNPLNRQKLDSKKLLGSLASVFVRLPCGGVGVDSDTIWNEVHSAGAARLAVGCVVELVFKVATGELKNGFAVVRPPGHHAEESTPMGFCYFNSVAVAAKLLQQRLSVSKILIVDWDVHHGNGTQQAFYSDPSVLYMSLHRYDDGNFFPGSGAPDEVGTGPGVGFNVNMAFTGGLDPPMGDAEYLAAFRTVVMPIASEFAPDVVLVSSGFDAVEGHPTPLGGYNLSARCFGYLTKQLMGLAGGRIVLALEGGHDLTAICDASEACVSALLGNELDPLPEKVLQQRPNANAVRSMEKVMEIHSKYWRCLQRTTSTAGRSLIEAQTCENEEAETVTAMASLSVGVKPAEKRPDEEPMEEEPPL

HDAC2, sequence (Q92769 whole entry): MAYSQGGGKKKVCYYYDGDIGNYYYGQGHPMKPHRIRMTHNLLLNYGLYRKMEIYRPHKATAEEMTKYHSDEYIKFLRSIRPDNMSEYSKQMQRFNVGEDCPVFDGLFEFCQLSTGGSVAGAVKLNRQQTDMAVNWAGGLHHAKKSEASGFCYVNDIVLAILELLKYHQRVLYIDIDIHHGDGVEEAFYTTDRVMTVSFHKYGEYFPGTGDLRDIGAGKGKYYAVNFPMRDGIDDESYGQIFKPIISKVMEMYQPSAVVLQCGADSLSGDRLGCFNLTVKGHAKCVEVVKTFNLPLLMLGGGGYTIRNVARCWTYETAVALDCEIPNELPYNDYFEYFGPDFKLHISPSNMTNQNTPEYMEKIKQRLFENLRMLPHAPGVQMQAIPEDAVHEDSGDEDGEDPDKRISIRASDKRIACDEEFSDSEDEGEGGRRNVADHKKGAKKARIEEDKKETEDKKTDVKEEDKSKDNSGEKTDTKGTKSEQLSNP

SMILES | GI50 [1] [µM] | selectivity for Class I HDACs (HDAC2; HDAC2 versus Class II HDACs) | inhibition of HDAC2 (HDAC2) | inhibition of HDAC4 (HDAC4)
CCOC(=O)NCCCC(=O)NCCc1ccccc1 [compound 1, Ethyl 3-(phenethylcarbamoyl)propylcarbamate] | > 100 | over 3,500 fold | selectively inhibited HDAC2 | relatively little inhibition of HDAC4
O=C(CCCCCCC(=O)Nc1ccccc1)NO [compound 2, suberoylanilide hydroxamic acid, reference compound] | – | – | – | completely inhibited
O=C(CCCC(=O)NCCc1ccccc1)NO [compound 3, N^1-Hydroxy-N^5-phenethylglutaramide] | > 100 | – | selectively inhibited HDAC2 | relatively little inhibition of HDAC4
